From patent publication US8741886B2, “Baclofen and acamprosate based therapy of neurological disorders” (Pharnext, priority 2011, dated 2014) come the findings set out here.

Assay [1] has as its system rat primary cortical cells. Put plainly: Toxicity of human Aβ1-42 peptide on primary cortical neuron cells: LDH release. The format is cell-based. To be noted: for effect on Aβ1-42 intoxication, LDH release (in words): Aβ1-42 10 μM, single drugs at the concentrations used in the combination. The protocol:
Rat cortical neurons were cultured as described by Singer et al. (47). Briefly pregnant female rats of 15 days gestation were killed by cervical dislocation (Rats Wistar) and the foetuses were removed from the uterus. The cortex was removed and placed in ice-cold medium of Leibovitz (L15) containing 2% of Penicillin 10.000 U/ml and Streptomycin 10 mg/ml and 1% of bovine serum albumin (BSA). Cortexes were dissociated by trypsin for 20 min at 37° C. (0.05%). The reaction was stopped by the addition of Dulbecco's modified Eagle's medium (DMEM) containing DNasel grade II and 10% of foetal calf serum (FCS). Cells were then mechanically dissociated by 3 serial passages through a 10 ml pipette and centrifuged at 515×g for 10 min at +4° C. The supernatant was discarded and the pellet of cells was re-suspended in a defined culture medium consisting of Neurobasal supplemented with B27 (2%), L-glutamine (0.2 mM), 2% of PS solution and 10 ng/ml of BDNF. Viable cells were counted in a Neubauer cytometer using the trypan blue exclusion test. The cells were seeded at a density of 30 000 cells/well in 96 well-plates (wells were pre-coated with poly-L-lysine (10 μg/ml)) and were cultured at +37° C. in a humidified air (95%)/CO2 (5%) atmosphere.
Briefly, Aβ1-42 peptide was reconstituted in define culture medium at 40 μM (mother solution) and was slowly shaken at +37° C. for 3 days in dark. The control medium was prepared in the same conditions.
After 10 days of neuron culture, test compounds were solved in culture medium (+0.1% DMSO) and then pre-incubated with neurons for 1 hour before the Aβ1-42 application (in a final volume per culture well of 100 μl). One hour after test compound(s) incubation, 100 μl of Aβ1-42 peptide was added to a final concentration of 10 μM diluted in presence of drug(s), in order to avoid further test compound(s) dilutions. Cortical neurons were intoxicated for 24 hours. Three separate cultures were performed per condition, 6 wells per condition.
BDNF (50 ng/ml) and Estradiol-β (150 nM) were used as positive control and reference compounds respectively. Three separate cultures will be performed per condition, 12 wells per condition.
Estradiol-β at 150 nM was used as a positive control (FIG. 4).
Estradiol-β was solved in culture medium and pre-incubated for 1 h before the amyloid-β1-42 application.
The following conditions were assessed: • CONTROL PLAQUE: 12 wells/condition • Negative Control: medium alone+0.1% DMSO • Intoxication: amyloid-β1-42 (10 μM) for 24 h • Reference compound: Estradiol (150 nM) 1 hr. • DRUG PLATE: 6 wells/condition • Negative Control: medium alone+0.1% DMSO • Intoxication: amyloid-β1-42 (10 μM) for 24 h • Test compound(s): test compound(s)—1 hr followed by amyloid-β1-42 (10 μM) for 24 h Lactate Dehydrogenase (LDH) Activity Assay
24 hours after intoxication, the supernatant was taken off and analyzed with Cytotoxicity Detection Kit (LDH, Roche Applied Science, ref: 11644793001, batch: 11800300). This colorimetric assay for the quantification of cell toxicity is based on the measurement of lactate dehydrogenase (LDH) activity released from the cytosol of dying cells into the supernatant.
Data were expressed in percentage of control conditions (no intoxication, no amyloid=100%) in order to express the amyloid injury. All values were expressed as mean+/−SEM (s.e.mean) of the 3 cultures (n=6 wells per condition). Statistic analyses were done on the different conditions (ONE-WAY ANOVA followed by the Dunnett's test when it was allowed, Statview software version 5.0).
For orientation: Release of lactate dehydrogenase indicates damage to the cell membrane.

The test system of assay [2] is mice injected i.c.v. with Aβ25-35 peptide. Put plainly: Spontaneous alternation, Y-maze test, after i.c.v. Aβ25-35. It counts as in vivo. The following applies: drugs alone: Donepezil 0.25 mg/kg/day, Acamprosate 32 μg/kg/day, Baclofen 480 μg/kg/day. From the text: The Y-maze is made of grey polyvinylchloride. Each arm is 40 cm long, 13 cm high, 3 cm wide at the bottom, 10 cm wide at the top, and converging at an equal angle. […] An alternation is defined as entries into all three arms on consecutive occasions.

Assay [3] deals with Human brain microvascular endothelial cerebral cells (HBMEC). As to the kind of experiment: Toxicity of human Aβ1-42 peptide on HBMEC: total length of capillary network. The following applies: Aβ1-42 2.5 μM; single drugs at the concentrations used in the combination. The format is cell-based. The protocol: Human brain microvascular endothelial cell cultures were used to study the protection afforded by candidate compound(s) on Aβ1-42 toxicity.
Human brain microvascular endothelial cerebral cells (HBMEC, ScienCell Ref: 1000, frozen at passage 10) were rapidly thawed in a waterbath at +37° C. The supernatant was immediately put in 9 ml Dulbecco's modified Eagle's medium (DMEM; Pan Biotech ref: P04-03600) containing 10% of foetal calf serum (FCS; GIBCO ref 10270-106). […]
• Negative Control: medium alone+0.1% DMSO • Intoxication: amyloid-β1-42 (2.5 μM) for 18 h • Positive control: VEGF-165 (10 nM) (1 reference compound/culture) 1 hr before the Aβ1-42 (2.5 μM) addition for a 18 h incubation time. • Test compounds: Test compound(s) 1 hr before the Aβ1-42 (2.5 μM) addition for a 18 h incubation time. Capillary Network Quantification
Per well, 2 pictures with 4× lens were taken using InCell Analyzer™ 1000 (GE Healthcare) in light transmission. […] The total length of capillary network was assessed.
Data were expressed in percentage of control conditions (no intoxication, no amyloid=100%) in order to express the amyloid injury. All values were expressed as mean+/−SEM (s.e.mean) of the 3 cultures (n=6 wells per condition). […]

As to `CC(=O)NCCCS(=O)(=O)O` [Acamprosate], in assay [1] (8 nM), the “prevention of Aβ1-42 intoxication by pre-treatment” value was determined as 99%. In addition, in assay [1], the “effect on Aβ1-42 intoxication, LDH release (in words)” value is given as “no significant effect”. In assay [2], the “effect on percentage of alternation (Y-maze), low doses (in words)” value is recorded as “no significant effect”. Moreover, the “effect on Aβ1-42 intoxication, total length of capillary network (in words)” value in assay [3] is “no significant effect”.
Take `NCC(CC(=O)O)c1ccc(Cl)cc1` (stereo not shown) [Baclofen]: the “effect on Aβ1-42 intoxication, LDH release (in words)” value in assay [1] is on record as “no significant effect”. In addition, the “effect on percentage of alternation (Y-maze), low doses (in words)” value in assay [2] is reported as “no significant effect”. Further, in assay [3], the “effect on Aβ1-42 intoxication, total length of capillary network (in words)” value is “no significant effect”.
